Experimental data reported in patent US20140023611A1 (priority 2010, published 2014).
Where a name gives a salt, the structure may show the parent alone.

Assays:
[1] = Determination of compound Cmax and AUC after oral gavage (plasma LC-MS/MS); assay type: in vivo, Sprague-Dawley rats; settings: Sprague-Dawley, rat, plasma, po, Structure (I) examples
Summary of the method: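 Sprague-Dawley rats dosed by oral gavage at nominal 2.5 or 10 mg/kg; blood drawn at 0.5, 1, 2 and 4 h into K2EDTA. Plasma protein-precipitated with acetonitrile plus internal standard and analysed by LC-MS/MS against a plasma standard curve to derive Cmax and AUC.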

[2] = biological target: T1, human NaP2b (SLC34A2) (Homo sapiens, UniProt O95436); experiment: Inhibition of NaP2b-mediated Pi (33P) uptake in transfected HEK293 cells, human NaP2b; assay type: cell-based; settings: read-out: pIC50 range for human NaP2b (converted)
T1 construct: host or cells: HEK293
T1 sequence (O95436 1-690): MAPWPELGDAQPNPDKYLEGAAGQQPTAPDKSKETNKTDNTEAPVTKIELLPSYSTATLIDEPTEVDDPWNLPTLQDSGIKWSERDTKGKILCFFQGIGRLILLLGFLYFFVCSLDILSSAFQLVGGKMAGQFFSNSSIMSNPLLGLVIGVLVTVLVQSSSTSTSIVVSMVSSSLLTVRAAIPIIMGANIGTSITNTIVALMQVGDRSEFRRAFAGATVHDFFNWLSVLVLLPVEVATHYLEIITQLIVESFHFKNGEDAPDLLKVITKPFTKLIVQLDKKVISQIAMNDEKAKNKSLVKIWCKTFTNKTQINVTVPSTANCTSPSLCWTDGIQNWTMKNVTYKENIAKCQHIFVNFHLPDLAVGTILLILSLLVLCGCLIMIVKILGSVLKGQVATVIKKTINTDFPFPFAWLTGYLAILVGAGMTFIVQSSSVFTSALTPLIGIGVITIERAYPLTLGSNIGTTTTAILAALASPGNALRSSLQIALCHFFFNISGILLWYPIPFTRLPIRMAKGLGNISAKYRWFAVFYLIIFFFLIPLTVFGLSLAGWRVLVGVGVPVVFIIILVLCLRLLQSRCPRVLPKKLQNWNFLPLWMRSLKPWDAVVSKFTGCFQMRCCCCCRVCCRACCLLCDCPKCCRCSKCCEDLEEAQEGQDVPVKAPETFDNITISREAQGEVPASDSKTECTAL
Summary of the method: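 HEK293 cells transiently transfected with human NaP2b (Thr inserted after residue 37, N39D), endogenous PiT transport pharmacologically silenced. Sodium or choline buffer, pH 7.4, with 100 uM KH2PO4, 33P orthophosphate and compound (0.1 nM–30 uM, twelve concentrations, duplicate). 3-30 min at room temperature, scintillation counting, pIC50 derived.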

[3] = Table 15, actual oral dose 15-40 mg/kg, plasma 0.5-4 h
[4] = Table 15, actual oral dose 3-15 mg/kg, plasma 0.5-4 h

AUC [1, 3] | Cmax ([1]; Table 15, plasma 0.5-4 h) | IC50 [2] | AUC [1, 4] | Cmax [1, 4] | SMILES
< 30 ng·h/mL | < 10 ng/mL | < 1000 nM |  |  | CCN(CC)c1ccc(NC(=O)c2cccc(CCCOCCOCCOCCOCCOCCC(=O)O)c2)c(-c2cc(C(=O)NCc3cccc(C(F)(F)F)c3)ccn2)c1 [Example 300, 19-(3-(4-(diethylamino)-2-(4-(3-(trifluoromethyl)benzylcarbamoyl)pyridin-2-yl)phenylcarbamoyl)phenyl)-4,7,10,13,16-pentaoxanonadecan-1-oic acid]
 |  | 1000 to 7940 nM | < 10 ng·h/mL | < 10 ng/mL | CN(CCOCCOCCOCCC(=O)O)C(=O)Cc1cccc(SCc2cccc(C(=O)Nc3ccc(N4CCCCC4)cc3-c3cc(C(=O)NCc4cccc(C(F)(F)F)c4)ccn3)c2)c1 [Example 138]
< 30 ng·h/mL | < 30 ng/mL | 1000 to 7940 nM |  |  | CCN(CC)c1ccc(NC(=O)c2cccc(CCCOCCOCCOCCOCCOCCOCCOCCOCCOCCC(=O)O)c2)c(-c2cc(C(=O)NCc3cccc(C(F)(F)F)c3)ccn2)c1 [Example 298, 31-(3-(4-(diethylamino)-2-(4-(3-(trifluoromethyl)benzylcarbamoyl)pyridin-2-yl)phenylcarbamoyl)phenyl)-4,7,10,13,16,19,22,25,28-nonaoxahentriacontan-1-oic acid]
 |  | 1000 to 7940 nM | < 10 ng·h/mL | < 10 ng/mL | CCN(CC)c1ccc(NC(=O)c2cccc(C(=O)N(C)CCOCCOCCOCCC(=O)O)c2)c(-c2cc(C(=O)NCc3cccc(C(F)(F)F)c3)ccn2)c1 [Example 188, 1-(3-((4-(diethylamino)-2-(4-((3-(trifluoromethyl)benzyl)carbamoyl)pyridin-2-yl)phenyl)carbamoyl)phenyl)-2-methyl-1-oxo-5,8,11-trioxa-2-azatetradecan-14-oic acid]
 |  | 1000 to 7940 nM | > 50 ng·h/mL | < 10 ng/mL | CCN(CC)c1ccc(NC(=O)c2cccc(C(=O)N(C)CCN(CCOC)CCOCCOCCOCCOCCOCCOCCOC)c2)c(-c2cc(C(=O)NCc3cccc(C(F)(F)F)c3)ccn2)c1 [Example 335, N^1-(4-(Diethylamino)-2-(4-(3-(trifluoromethyl)benzylcarbamoyl)pyridin-2-yl)phenyl)-N^3-(23-(2-methoxyethyl)-2,5,8,11,14,17,20-heptaoxa-23-azapentacosan-25-yl)-N^3-methylisophthalamide, trifluoroacetate]
 |  | < 1000 nM | < 30 ng·h/mL | < 30 ng/mL | CCCN(CCC)c1ccc(NC(=O)c2cccc(COCCOCCOCCOCCOCCOCCOCCOCCOC)c2)c(-c2cc(C(=O)NCc3cccc(C(F)(F)F)c3)ccn2)c1 [Example 200, 2-(2-(3-(2,5,8,11,14,17,20,23,26-nonaoxaheptacosyl)benzamido)-5-(dipropylamino)phenyl)-N-(3-(trifluoromethyl)benzyl)isonicotinamide]
< 30 ng·h/mL | < 30 ng/mL | < 1000 nM |  |  | CCN(CC)c1ccc(NC(=O)c2cccc(CCCOCCOCCOCCOCCOCCOCCC(=O)O)c2)c(-c2cc(C(=O)NCc3cccc(C(F)(F)F)c3)ccn2)c1 [Example 299, 22-(3-(4-(diethylamino)-2-(4-(3-(trifluoromethyl)benzylcarbamoyl)pyridin-2-yl)phenylcarbamoyl)phenyl)-4,7,10,13,16,19-hexaoxadocosan-1-oic acid]
 |  | < 1000 nM | < 30 ng·h/mL | < 30 ng/mL | CCN(CC)c1ccc(NC(=O)c2cccc(CSCCOCCOCCOCCOCCOCCOCCOCCOC)c2)c(-c2cc(C(=O)NCc3cccc(C(F)(F)F)c3)ccn2)c1 [Example 265, 2-(2-(3-(2,5,8,11,14,17,20,23-octaoxa-26-thiaheptacosan-27-yl)benzamido)-5-(diethylamino)phenyl)-N-(3-(trifluoromethyl)benzyl)isonicotinamide]
 |  | < 1000 nM | < 10 ng·h/mL | < 10 ng/mL | CCN(CC)c1ccc(NC(=O)c2cccc(CCCOCCOCCOCCOCCOCCOCCOCCOCCOC)c2)c(-c2cc(C(=O)NCc3cccc(C(F)(F)F)c3)ccn2)c1 [Example 269, 2-(2-(3-(2,5,8,11,14,17,20,23,26-nonaoxanonacosan-29-yl)benzamido)-5-(diethylamino)phenyl)-N-(3-(trifluoromethyl)benzyl)isonicotinamide]
 |  | < 1000 nM | < 10 ng·h/mL | < 10 ng/mL | CCN(CC)c1ccc(NC(=O)c2cccc(CSCCOCCOCCOCCOCCC(=O)O)c2)c(-c2cc(C(=O)NCc3cccc(C(F)(F)F)c3)ccn2)c1 [Example 162, 1-(3-(4-(diethylamino)-2-(4-(3-(trifluoromethyl)benzylcarbamoyl)pyridin-2-yl)phenylcarbamoyl)phenyl)-5,8,11,14-tetraoxa-2-thiaheptadecan-17-oic acid]
< 50 ng·h/mL | > 50 ng/mL | 1000 to 7940 nM | < 10 ng·h/mL | < 10 ng/mL | CCN(CC)c1ccc(NC(=O)c2cccc(CSCCOCCOCCOCCOCCOCCOCCOCCOCCC(=O)O)c2)c(-c2cc(C(=O)NCc3cccc(C(F)(F)F)c3)ccn2)c1 [Example 166, 1-(3-(4-(diethylamino)-2-(4-(3-(trifluoromethyl)benzylcarbamoyl)pyridin-2-yl)phenylcarbamoyl)phenyl)-5,8,11,14,17,20,23,26-octaoxa-2-thianonacosan-29-oic acid]
 |  | < 1000 nM | < 10 ng·h/mL | < 10 ng/mL | CCN(CC)c1ccc(NC(=O)c2cccc(CSc3cccc(CC(=O)N(C)CCOCCOCCOCCC(=O)O)c3)c2)c(-c2cc(C(=O)NCc3cccc(C(F)(F)F)c3)ccn2)c1 [Example 144, 3-(2-(2-(2-(2-(3-(3-(4-(diethylamino)-2-(4-(3-(trifluoromethyl)benzylcarbamoyl)pyridin-2-yl)phenylcarbamoyl)benzylthio)phenyl)-N-methylacetamido)ethoxy)ethoxy)ethoxy)propanoic acid]
 |  | < 1000 nM | < 30 ng·h/mL | < 30 ng/mL | O=C(O)CCOCCOCCOCCNC(=O)c1cccc2c1ccn2Cc1cccc(C(=O)Nc2ccc(N3CCCCC3)cc2-c2cc(C(=O)N[C@H]3CCCc4ccccc43)ccn2)c1 [Example 181, (S)-1-oxo-1-(1-(3-(4-(piperidin-1-yl)-2-(4-(1,2,3,4-tetrahydronaphthalen-1-ylcarbamoyl)pyridin-2-yl)phenylcarbamoyl)benzyl)-1H-indol-4-yl)-5,8,11-trioxa-2-azatetradecan-14-oic acid]
< 10 ng·h/mL | < 10 ng/mL | 1000 to 7940 nM |  |  | CCN(CC)c1ccc(NC(=O)c2cccc(CCCOCCOCCOCCOCCNS(=O)(=O)c3ccc(C(=O)N(CCOC)CCOCCOCCOCCOCCOCCOCCOC)cc3)c2)c(-c2cc(C(=O)NCc3cccc(C(F)(F)F)c3)ccn2)c1 [Example 272, 2-(2-(3-(1-(4-(2,5,8,11,14,17,20-heptaoxadocosan-22-yl(2-methoxyethyl)carbamoyl)phenylsulfonamido)-3,6,9,12-tetraoxapentadecan-15-yl)benzamido)-5-(diethylamino)phenyl)-N-(3-(trifluoromethyl)benzyl)isonicotinamide]
 |  | 1000 to 7940 nM | < 10 ng·h/mL | < 10 ng/mL | CCN(CC)c1ccc(NC(=O)c2cccc(CSCCOCCOCCOCCOCCOCCOCCOCCOCCC(=O)O)c2)c(-c2cc(C(=O)N[C@H]3CCCc4ccccc43)ccn2)c1 [Example 161, (S)-1-(3-(4-(diethylamino)-2-(4-(1,2,3,4-tetrahydronaphthalen-1-ylcarbamoyl)pyridin-2-yl)phenylcarbamoyl)phenyl)-5,8,11,14,17,20,23,26-octaoxa-2-thianonacosan-29-oic acid]
 |  | < 1000 nM | < 30 ng·h/mL | < 10 ng/mL | O=C(O)c1cccc(SCc2cccc(C(=O)Nc3ccc(N4CCCCC4)cc3-c3cc(C(=O)NCc4cccc(C(F)(F)F)c4)ccn3)c2)c1 [Example 8.1, 3-(3-(4-(piperidin-1-yl)-2-(4-(3-(trifluoromethyl)benzylcarbamoyl)pyridin-2-yl)phenylcarbamoyl)benzylthio)benzoic acid]
 |  | 1260 nM | < 30 ng·h/mL | < 30 ng/mL | O=C(NCc1cccc(C(F)(F)F)c1)c1ccnc(-c2cc(N3CCCCC3)ccc2NC(=O)c2cccc(CSc3ccc(C(=O)O)c(Br)c3)c2)c1 [Example 8.21]
 |  | 1000 to 7940 nM |  | < 10 ng/mL | CN(CCN1CCOCC1)C(=O)c1cccc(C(=O)Nc2ccc(N3CCCCC3)cc2-c2cc(C(=O)NCc3cccc(C(F)(F)F)c3)ccn2)c1 [Example 80, N1-Methyl-N1-(2-morpholinoethyl)-N3-(4-(piperidin-1-yl)-2-(4-((3-(trifluoromethyl)benzyl)carbamoyl)pyridin-2-yl)phenyl)isophthalamide]
